Results as given in patent publication US20170198027A1 (priority 2012, published 2017).

Tests used:
[1] = test system: ApoE ko mice fed with high fat diet
Description: 10 ApoE ko mice were fed with regular chow diet and used as negative control group. 50 ApoE ko mice were fed with high fat diet (35% kcal fat, 1% cholesterol) for 8 weeks, and then the plasma samples were collected for lipid profile measurement before the treatment. 50 ApoE ko mice were assigned into 5 groups based on the fasting overnight plasma TC and HDL level.
19 Mar. 2012 to 6 Apr. 2012: Group the mice based on the TC and HDL level and start the treatment with 3 doses of antibody APOA1 by i.p daily on the weekday (The first dose was administered by iv injection
13 Apr. 2012-14 May 2012: The treatment with antibody APOA1 was changed to i.p injection every two days (Monday, Wednesday, and Friday) per client's instruction.
Antibody products were administrated by intraperitoneal injection every two days (Monday, Wednesday, and Friday). and the positive compound was administered by p.o every day.
5.4. Body weight and blood glucose measurement: The body weight was weighed weekly during the period of treatment. The fasting overnight blood glucose was measured at the end of study by Roche glucometer.
5.5 24 h food intake measurement: 24 hours food intake for each cage was measured weekly
5.6. Plasma lipid profile measurement: About 300 ul of blood sample was collected from the orbital vein for each mouse and centrifuged at 7000 rpm for 5 min at 4° C. and the plasma lipid profile was measured by Roche Modular automatic biochemistry analyzer in DaAn Medical Laboratory
After RAAS antibody products treatment for 8 weeks, all mice were sacrificed. Measured body weight and collected blood sample for each mouse. Weighed liver weight and saved a tiny piece of liver into 4% paraformaldehyde (PFA) fixation solution for further analysis. At same time, take the photos with heart, lung, aortas and two kidneys.
Scanning the glasses slides with the Aperio ScanScope system and analyze with the image proplus software to measure the area of atherosclerotic plaque session. The results were expressed as the percentage of the total aortic surface area covered by lesions. The operation procedure of software was briefly described as follow: Converted the sys version photos into JPG version, then calibrated it and subsequently selected the red regions and then calculate the total area automatically by image proplus software.
The results were expressed as the Mean±SEM and statistically evaluated by student's t-test.

6-OHDA lesioned rat = 6-OHDA lesioned rat model of Parkinson's disease (cylinder, adjusting step, rotation, TH staining); format: in vivo; settings: prophylactic, high and moderate groups vs vehicle, trend
Description: 1. Animals: male SO rats were purchased from Shanghai Laboratory Animal Center (SLAC). They were housed under 21-23 OC, with 12 h light-dark life cycle. Food and water were given ad libitum.
2. 6uOHDA lesion: Rats were anesthetized with 60 mg/kg sodium pentobarbital. They were stereotaxic injected with total dose of 20 pg of fresh prepared 6-OHDA (dissolved in saline containing 0.05% ascorbic acid, calculated as free base) into tvvo sites of the left striatum, using the following coordinates (in mm relative to Bregma): AP+i 0.0, L −2.5, DV −5.0; AP −0.4, L −4.0, DV −5.5. The injection rate was i pi/min and a total of 2 iJI was injected at each site. The needle was left in place for 3 min before retracting.
3. Cylinder test: Rats were placed in a transparent cylinder (22 cm in diameter and 30 cm height). Animal would rear and support its body with one or both of its forelimbs. […] Each behavioral was expressed as percent use of left, right or both limb(s) relative to the total number.
4. […] The number of adjusting steps of each left and right forelimbs on both directions was recorded individually. […]
6. […] Number of positively stained cells in the left and right sides of SN in each section was counted to make the summation. The ratio of left/right was calculated.
7. Statistic analysis: Data were expressed as mean±SEI\tl and analyzed with ANOVA followed by Tukey test. […]

[2] = test system: Apo E(-/-) mice fed with HFD/High Cholesterol diet; test: lipid profile and atherosclerosis plaque in 18 ApoE mice, 4 weeks study; format: in vivo, mouse
Description: [table] […] Before HFD; 4 week: […] After 4 weeks treatment Oil Red staining procedure: • Sacrificed the mice and heart, aorta, and arteries were dissected under the dissecting microscope. […] Stain with freshly prepared Oil Red 0 working solution 10 mins. Image analysis procedure: • The unfolded vascular inner wall “Were scanned with Aperio ScanScope system and the area of atherosclerotic plaque was measured by Image-Proplus software after oil red 0 staining as follow picture shown. We measured the sum lesion areas and mean density using ipp software and calculated atherosclerotic percent. Area percent (%)” Sum area of atherosclerotic plaque (mm2) I whole area of vascular inner wall

human Apoiipoprotein AI, injection [APOA1]
arteriosclerosis plaque lesion in the region of thoracic aorta (root plaque area) ([1]; APOA1 mid dose and low dose, not significant vs vehicle): trend of reducing the arteriosclerosis plaque lesion
plasma total cholesterol (TC) ([1]; after 8 week treatment, APOA1 low dose): significantly lower total cholesterol level
plasma TG level ([1]; after 8 weeks treatment): no effect
fasting overnight blood glucose ([1]; after 8 weeks treatment vs vehicle): no effect
ratio of liver weight/body weight ([1]; after 8 weeks treatment vs vehicle, RAAS antibody low dose, atorvastatin 20 mg/kg): reduced the ratio of liver weight/body weight significantly
atherosclerosis plaque lesion area of aorta ([1]; after 8 weeks treatment, APOA1 low dose): trend on reducing the plaque lesion area
deaths in the treatment groups ([1]; after 15 doses treatment): several mice died
atherosclerosis plaque lesion from the aortic root to right renal artery ([1]; atorvastatin p=0.08): trend of reducing the atherosclerosis plaque lesion in a dose dependent manner
plasma HDL ([1]; low dose, after 4 weeks treatment): significantly decrease the HDL level
body weight ([1]; vs vehicle group, atorvastatin after 5 weeks treatment): trend on reducing body weight but didn't reach statistic difference
neuron count, damage caused by 6-OHDA lesion (6-OHDA lesioned rat): reduce the damage caused by 6-OHDA lesion
blood plasma lipid profile ([2]; after 5 weeks treatment, 0.2 ml iv/ip): didn't improve the lipid profile
atherosclerotic plaques/lesions ([2]; vs vehicle group after 14 dosing): trend on reducing the atherosclerotic plaques/lesions
